In US10494412B2, “Peptides” (HOX THERAPEUTICS LIMITED, priority 2015, dated 2019):
Read-outs that look alike come from different tables or passages of the source. Where no end group is shown, it is not given here.

Assays:
[1] = Body weight of PC3 tumour bearing mice; type: in vivo; details: intratumoural
Experimental: PC3 cells were injected subcutaneously into female or male Balb-c nude mice aged 6 to 12 weeks (Harlan, UK). When the tumour size reached 100 mm^3 mice were injected intratumouraly with PBS, HXR9 or HTL001 at the intervals shown in FIG. 3. Mice were sacrificed when the tumour size reached 1000 mm^3 or at the end of the experiment (36 days). Tumours were then excised and immersed in 10% formalin for 24 h and processed for paraffin embedding. 5 μm slices of xenografts in paraffin blocks were made using microtome and different proteins detected by immunohistochemistry.

PC3 cells [2] = assay: cells; details: Homo sapiens, PC-3, 2 h, read-out: PC3 2 hr IC50 (±SD)
Experimental: (§1) The cytotoxicity of the peptides on the prostate cancer derived cell lines DU145 and PC3 was tested as previously described (Morgan et al. 2014, ibid), using the MTT assay for metabolic activity. The cytotoxic drug Docetaxel (a standard chemotherapeutic drug) was included as a positive control.
(§2) Doses are in μM (micromoles), and the mean value from 3 experiments is given along with the standard deviation.

PC3 cells [3] = details: for PC3 2 hr IC50 change relative to HXR9: fold difference in IC50 relative to HXR9, 2 hr; for PC3 96 hr IC50 change relative to HXR9: fold difference in IC50 relative to HXR9, 96 hr
Experimental: as §1, §2

HOXB4/PBX2 dimers = target: T1, HOXB4/PBX2 dimers (Homo sapiens, UniProt P40425); assay: Cell based ELISA assay for HOX/PBX binding; details: MDA-MB-231 cells, 4 hours, compared to DMSO, SEM, read-out: % inhibition of HOXB4/PBX2 dimer formation
T1 construct: endogenous in cells; host or cells: MDA-MB-231
T1 sequence (P40425 1-430): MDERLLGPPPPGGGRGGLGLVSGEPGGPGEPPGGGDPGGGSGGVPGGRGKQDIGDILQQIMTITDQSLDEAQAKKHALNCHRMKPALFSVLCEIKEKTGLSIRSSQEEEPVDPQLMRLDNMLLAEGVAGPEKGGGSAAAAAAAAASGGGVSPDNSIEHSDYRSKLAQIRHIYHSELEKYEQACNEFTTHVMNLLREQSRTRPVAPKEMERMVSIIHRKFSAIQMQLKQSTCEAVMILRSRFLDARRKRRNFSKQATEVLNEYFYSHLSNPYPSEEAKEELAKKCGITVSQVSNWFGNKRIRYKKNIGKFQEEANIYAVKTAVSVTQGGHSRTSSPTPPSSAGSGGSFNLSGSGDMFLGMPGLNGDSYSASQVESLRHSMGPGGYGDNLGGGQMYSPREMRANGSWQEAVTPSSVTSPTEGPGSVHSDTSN
Experimental: In order to directly assess the ability of each peptide to disrupt HOX/PBX binding a cell-based assay system was developed that could allow the formation of HOX/PBX/DNA dimers. Cultured MDA-MB-231 cells were treated with 10 μM of each peptide for 4 hours and then used to generate a cell lysate using a standard preparation method as described below. HOXB4/PBX2 dimers were then measured using an ELISA-based system as detailed in the table below. The values from this assay are expressed as % inhibition of dimer formation compared to a negative control (DMSO).
1. Collect approximately 5.0×10^7 cells by low-speed centrifugation at RT for 5 min. Carefully remove culture medium.
2. Wash the cellular debris (pellet) with PBS at RT, and collect by low-speed centrifugation. Carefully remove supernatant (total protein).
3. Add 1.0 ml of pre-cold RIPA buffer (or other appropriate buffer) with freshly added (Protease Inhibitors) and/or (Phosphatase Inhibitors). Gently resuspend cells in RIPA buffer with a pipet and incubate on ice for 30 min.
4. Further disrupt and homogenize cells by passing through a 21-gauge needle, dounce homogenization or sonication, taking care not to raise the temperature of the lysate. (Optional: Add 10 μl of 10 mg/ml PMSF stock) Incubate 30 min on ice.
5. Transfer to microcentrifuge tube(s) and centrifuge at 10,000×g for 10 min at 4° C. […]

[4] = read-out: PC3 2 hr IC50 (±SD), PC3 cells, 2 hr, MTT, mean of 3 experiments ± SD
[5] = read-out: PC3 96 hr IC50 (±SD), PC3 cells, 96 hr, MTT, mean of 3 experiments ± SD

Row | PC3 2 hr IC50 change relative to HXR9 (PC3 cells [3]) [fold] | PC3 96 hr IC50 change relative to HXR9 (PC3 cells [3]) [fold] | IC50 (PC3 cells [3]; [4]) [µM] | IC50 (PC3 cells [3]; [5]) [µM] | Molecule | also measured
1 | – | – | – | – | WYPWMKKHHRRRRRRRRR [HXR9, WYPWMKKHHRRRRRRRRR] | Maximum % weight loss [1]: 0%
2 | – | – | – | – | CC(=O)O[C@@]12CO[C@@H]1C[C@H](O)[C@@]1(C)C(=O)[C@H](O)C3=C(C)[C@@H](OC(=O)[C@H](O)[C@@H](NC(=O)OC(C)(C)C)c4ccccc4)C[C@@](O)([C@@H](OC(=O)c4ccccc4)[C@H]21)C3(C)C [Docetaxel] | IC50 (PC3 cells [2]): 4 µM
3 | 0.64 | 1.08 | 45 | 40 | WYPWMKKAARRRRRRRRR [HXR9AS7] | –
4 | – | – | – | – | WYKWMKKAARRRRRRRRR [HTL001, WYKWMKKAARRRRRRRRR] | inhibition at 10 µM (HOXB4/PBX2 dimers): 28.2%; Maximum % weight loss [1]: 0%
5 | 0.48 | 0.80 | 60 | 54 | WYPWMKKRRRRRRRRR [HXR9noH] | –
6 | 1.32 | 2.05 | 22 | 21 | WYKWMKKRRRRRRRRR [HXR9KS3noH] | –
7 | – | – | – | – | WYPAMKKHHRRRRRRRRR [CXR9, WYPAMKKHHRRRRRRRRR] | IC50 (PC3 cells [3]; 2 h): > 80 µM; IC50 (PC3 cells [3]; 96 h): > 80 µM
8 | 1.53 | 2.53 | 19 | 17 | WYKWMKKHHRRRRRRRRR [HXR9KS3] | –
